Laboratory results as given in ChEMBL document CHEMBL4706476, “Novel Tetrahydropyrido[4,3-d]pyrimidines as Potent Inhibitors of Chaperone Heat Shock Protein 90” (J Med Chem, 2016).
Calls of active or inactive are those of the source. The calls are words filed in the database; no cut-off is given here.

Experiments:
[1] = biological target: T1, Heat shock protein HSP90 (Homo sapiens) (UniProt P07900+P08238); assay: Inhibition of HSP90 in human HCT-116 cells assessed as reduction in phosphorylated Erk after 24 hrs by Western blot analysis; type: cell-based; conditions: dose 0.01-3 µM
[2] = test system: HCT-116; assay: Antitumor activity against human HCT-116 cells xenografted in nude mouse assessed as decrease in tumor cells at 40 to 60 mg/kg, ip administered every other day for 16 days by hematoxylin and eosin staining based assay; conditions: dose 40-60 mg/kg, time 16.0 day
[3] = biological target: T1, Heat shock protein HSP90 (Homo sapiens); assay: Inhibition of HSP90 in human HCT-116 cells assessed as reduction in AKT protein expression after 24 hrs by Western blot analysis; type: cell-based; conditions: dose 0.01-3 µM
[4] = test system: Mus musculus; assay: In vivo inhibition of HSP90 in nude mouse xenografted with human HCT-116 cells assessed as decrease in Akt protein level in tumor at 40 to 60 mg/kg, ip administered every other day for 16 days and measured after 12 hrs post last dose by Western blot analysis; conditions: dose 40-60 mg/kg, time 16.0 day
[5] = test system: Mus musculus; assay: In vivo inhibition of HSP90 in nude mouse xenografted with human HCT-116 cells assessed as decrease in Erk protein level in tumor at 40 to 60 mg/kg, ip administered every other day for 16 days and measured after 12 hrs post last dose by Western blot analysis; conditions: dose 40-60 mg/kg, time 16.0 day
[6] = biological target: T1, Heat shock protein HSP90 (Homo sapiens); assay: Inhibition of HSP90 in human HCT-116 cells assessed as reduction in Erk protein expression after 24 hrs by Western blot analysis; type: cell-based; conditions: dose 0.01-3 µM
[7] = Selectivity ratio of IC50 for inhibition of FITC-geldanamycin binding to N-terminal GRP94 (unknown origin) to IC50 for inhibition of FITC-geldanamycin binding to N-terminal HSP90alpha (unknown origin)
[8] = test system: Mus musculus; assay: In vivo inhibition of HSP90 in nude mouse xenografted with human HCT-116 cells assessed as upregulation of HSP70 protein expression in tumor at 40 to 60 mg/kg, ip administered every other day for 16 days and measured after 12 hrs post last dose by Western blot analysis; conditions: dose 40-60 mg/kg, time 16.0 day
[9] = test system: Rattus norvegicus; assay: Ex vivo inhibition of HSP90 in Sprague-Dawley rat assessed as up regulation of HSP70 expression in retina at 20 mg/kg, iv administered for 2 consecutive days and measured 24 hrs post last dose by immunohistochemistry analysis; type: functional, organism-based; conditions: time 3.0 day
[10] = biological target: T1, Heat shock protein HSP90 (Homo sapiens); assay: Inhibition of HSP90 in human HCT-116 cells assessed as induction of HSP70 expression after 24 hrs by Western blot analysis; type: cell-based; conditions: dose 0.01-3 µM
[11] = test system: Rattus norvegicus; assay: Ex vivo inhibition of HSP90 in Sprague-Dawley rat assessed as up regulation of HSP70 expression in retina at 20 mg/kg, iv administered for 2 consecutive days and measured 24 hrs post last dose by Western blot analysis; type: functional, organism-based; conditions: time 3.0 day
[12] = test system: Mus musculus; assay: In vivo inhibition of HSP90 in nude mouse xenografted with human HCT-116 cells assessed as upregulation of HSP90 protein expression in tumor at 40 to 60 mg/kg, ip administered every other day for 16 days and measured after 12 hrs post last dose by Western blot analysis; conditions: dose 40-60 mg/kg, time 16.0 day
[13] = Toxicity in nude mouse xenografted with human HCT-116 cells assessed as change in body weight at 40 to 60 mg/kg, ip administered every other day for 16 days and monitored every 3 days; conditions: in vivo, 384 h
[14] = test system: HCT-116; assay: Antitumor activity against human HCT-116 cells xenografted in nude mouse assessed as reduction in relative tumor volume by measuring T/C ratio at 60 mg/kg, ip administered every other day for 16 days and monitored every 3 days; type: functional; conditions: time 16 day
[15] = Apparent volume of distribution in rat at 50 mg/kg, po measured upto 24 hrs by LC-MS/MS analysis; type: ADME, organism-based; conditions: in vivo
[16] = test system: HCT-116; assay: Antitumor activity against human HCT-116 cells xenografted in nude mouse assessed as reduction in relative tumor volume by measuring T/C ratio at 40 mg/kg, ip administered every other day for 16 days and monitored every 3 days; type: functional; conditions: time 16 day
[17] = Apparent volume of distribution in rat at 10 mg/kg, iv measured upto 24 hrs by LC-MS/MS analysis; type: ADME, organism-based; conditions: in vivo, read-out: Vz

Row | SMILES | inhibition [1] | Activity [2] | inhibition [3] | inhibition [4] | inhibition [5] | inhibition [6] | Ratio IC50 [7] | inhibition [8] | inhibition [9] | inhibition [10] | inhibition [11] | inhibition [12] | Activity [13] | T/C [14] [%] | Vz [15] [L/kg] | T/C [16] [%] | Vd [17] [L/kg]
1 | CCNc1nc(OCCOC)nc2c1CN(C(=O)c1cc(C(C)C)c(O)cc1O)CC2 | Dose-dependent effect | Active | Dose-dependent effect | Active | Active | Dose-dependent effect | 26 | Active | inactive | Dose-dependent effect | inactive | Active |  |  |  |  | 
2 | CCNc1nc(OCCOC)nc2c1CN(C(=O)c1cc(C(C)C)c(O)cc1O)CC2.Cl |  |  |  |  |  |  |  |  |  |  |  |  | Non-Toxic | 23 | 1620.19 | 45 | 29.6
